Source: article PMC5931096, “A Phase I study of the novel immunomodulatory agent PG545 (pixatimod) in subjects with advanced solid tumours” (British Journal of Cancer, 2018)

Assay: Phase I dose-escalation: safety, tolerability, DLT and MTD of weekly 1-h IV infusion
Type: in vivo
Procedure: The study was an open-label, multicentre, phase 1 dose-escalation study using a 3 + 3 design. The primary objective was to determine the MTD of weekly administered PG545 via IV infusion. Secondary objectives were to characterize safety, tolerability, clinical activity, PK and PD biomarkers.
Patients continued treatment until disease progression, unacceptable toxicity or withdrawal (either voluntarily or investigator-decision).
All patients were assessed for safety, those who received at least one dose of PG545 were evaluated for efficacy. Safety assessment included the incidence of all adverse events (AEs), irrespective of relationship to study drug, according to the National Cancer Institute Common Terminology Criteria for Adverse Events, version 4.0, and the incidence of patients experiencing dose modifications and/or premature discontinuation of study drug. Dose-limiting toxicities (DLTs) used to determine the MTD were defined as occurring during Cycle 1 of treatment only and related to PG545 according to investigator assessment. If no DLT occurred in the first three subjects, the next three-subject cohort was enrolled at the next highest available dose level. If a single DLT occurred, an additional three subjects was enrolled at the same dose level. Dose escalation continued until two subjects of the cohort experienced a DLT; this was defined as the toxic dose level. The dose-escalation phase was completed and MTD determined by reducing the dose to the next lowest dose compared to the toxic dose and expanding this cohort to at least 6 subjects.

[1] = Moderate, Unrelated, Safety Set

CC(C)CCC[C@@H](C)[C@H]1CC[C@H]2[C@@H]3CC[C@H]4C[C@@H](O[C@@H]5O[C@H](COS(=O)(=O)O)[C@@H](O[C@H]6O[C@H](COS(=O)(=O)O)[C@@H](O[C@H]7O[C@H](COS(=O)(=O)O)[C@@H](O[C@H]8O[C@H](COS(=O)(=O)O)[C@@H](OS(=O)(=O)O)[C@H](OS(=O)(=O)O)[C@H]8OS(=O)(=O)O)[C@H](OS(=O)(=O)O)[C@H]7OS(=O)(=O)O)[C@H](OS(=O)(=O)O)[C@H]6OS(=O)(=O)O)[C@H](OS(=O)(=O)O)[C@H]5OS(=O)(=O)O)CC[C@]4(C)[C@H]3CC[C@]12C [PG545]
11 (47.8%): TEAE: At least one event (Severe, Related, Safety Set)
6 (26) n (%): Hypertension, treatment-related AE (Overall, N = 23)
5 (22) n (%): Chills, treatment-related AE (Overall, N = 23) | Decreased appetite, treatment-related AE (Overall, N = 23) | Fatigue, treatment-related AE (Overall, N = 23) | Hypertension, related severe AE (Overall, N = 23) | Infusion-related reaction, treatment-related AE (Overall, N = 23) | Nausea, treatment-related AE (Overall, N = 23) | Pyrexia, treatment-related AE (Overall, N = 23)
one: SAEs graded mild (of the 12 SAEs)
1 (4.3%): TEAE: Groin pain [1] | TEAE: Hypoalbuminaemia [1] | TEAE: Infections and infestations [1] | TEAE: Insomnia [1] | TEAE: Intestinal obstruction [1] | TEAE: Malaise [1] | TEAE: Musculoskeletal pain [1] | TEAE: Neutrophil count increased [1] | TEAE: Pain in extremity [1] | TEAE: Platelet count increased [1] | TEAE: Upper respiratory tract infection [1] | TEAE: White blood cell count increased [1] | TEAE: Acute pulmonary oedema (Severe, Related, Safety Set) | TEAE: Blood cholesterol increased (Severe, Related, Safety Set) | TEAE: Blood pressure increased (Severe, Related, Safety Set) | TEAE: Epistaxis (Severe, Related, Safety Set) | TEAE: Hyperlipidaemia (Severe, Related, Safety Set) | TEAE: Infusion related reaction (Severe, Related, Safety Set) | TEAE: Injury, poisoning and procedural complications (Severe, Related, Safety Set) | TEAE: Metabolism and nutritional disorders (Severe, Related, Safety Set) | TEAE: Pyrexia (Severe, Related, Safety Set) | TEAE: AST increased (Severe, Unrelated, Safety Set) | TEAE: Anaemia (Severe, Unrelated, Safety Set) | TEAE: Blood and lymphatic system disorders (Severe, Unrelated, Safety Set) | TEAE: Chest pain (Severe, Unrelated, Safety Set) | TEAE: Constipation (Severe, Unrelated, Safety Set) | TEAE: Dehydration (Severe, Unrelated, Safety Set) | TEAE: Dysuria (Severe, Unrelated, Safety Set) | TEAE: GGT increased (Severe, Unrelated, Safety Set) | TEAE: General disorders and administration site conditions (Severe, Unrelated, Safety Set) | TEAE: Hyponatraemia (Severe, Unrelated, Safety Set) | TEAE: Infections and infestations (Severe, Unrelated, Safety Set) | TEAE: Lower respiratory tract infection (Severe, Unrelated, Safety Set) | TEAE: Renal and urinary disorders (Severe, Unrelated, Safety Set) | TEAE: Small intestinal obstruction (Severe, Unrelated, Safety Set)
12: Serious adverse events (SAEs), number (all cohorts)
150 mg: Toxic dose (weekly 1-h IV infusion)
nine: SAEs graded severe (of the 12 SAEs)
4 (17) n (%): Diarrhoea, treatment-related AE (Overall, N = 23)
5 (21.7%): TEAE: General disorders and administration site conditions [1] | TEAE: Hypertension (Severe, Related, Safety Set) | TEAE: Vascular disorders (Severe, Related, Safety Set)
2 (8.7%): TEAE: Headache [1] | TEAE: Nausea [1] | TEAE: Nervous system disorders [1] | TEAE: Psychiatric disorders [1] | TEAE: Chills (Severe, Related, Safety Set) | TEAE: Fatigue (Severe, Related, Safety Set) | TEAE: Investigations (Severe, Related, Safety Set) | TEAE: Blood ALP increased (Severe, Unrelated, Safety Set) | TEAE: Investigations (Severe, Unrelated, Safety Set) | TEAE: Metabolism and nutritional disorders (Severe, Unrelated, Safety Set)
1 (4) n (%): Acute pulmonary oedema, related AE leading to discontinuation (Overall, N = 23) | Acute pulmonary oedema, related serious AE (Overall, N = 23) | Acute pulmonary oedema, related severe AE (Overall, N = 23) | Blood cholesterol increased, related severe AE (Overall, N = 23) | Blood pressure increased, related severe AE (Overall, N = 23) | Chills, related AE leading to discontinuation (Overall, N = 23) | Epistaxis, related AE leading to discontinuation (Overall, N = 23) | Epistaxis, related serious AE (Overall, N = 23) | Epistaxis, related severe AE (Overall, N = 23) | Hyperlipidaemia, related severe AE (Overall, N = 23) | Hypertension, related AE leading to discontinuation (Overall, N = 23) | Hypertension, related serious AE (Overall, N = 23) | Hypovolaemia, related serious AE (Overall, N = 23) | Infusion-related reaction, related serious AE (Overall, N = 23) | Infusion-related reaction, related severe AE (Overall, N = 23) | Pyrexia, related AE leading to discontinuation (Overall, N = 23) | Pyrexia, related serious AE (Overall, N = 23) | Pyrexia, related severe AE (Overall, N = 23)
4 (17.5%): TEAE: General disorders and administration site conditions (Severe, Related, Safety Set)
6 (26.1%): TEAE: Musculoskeletal and connective tissue disorders [1]
Five: SAEs resulting in withdrawal or discontinuation (in vivo)
7 (30.4%): TEAE: At least one event (Severe, Unrelated, Safety Set)
two: SAEs graded fatal (of the 12 SAEs, death due to disease progression)
2 (8.7 %): TEAE: Respiratory, thoracic and mediastinal disorders (Severe, Related, Safety Set) | TEAE: Gastrointestinal disorders (Severe, Unrelated, Safety Set)
4 (17.4%): TEAE: Metabolism and nutritional disorders [1] | TEAE: Respiratory, thoracic and mediastinal disorders [1]
Six: SAEs possibly, likely or certainly related to PG545 (investigator assessment)
100 mg: Maximum-tolerated dose (MTD) (weekly 1-h IV infusion)
< 24 h: Duration of hypertensive episodes (transient)
2 (9) n (%): Blood cholesterol increased, treatment-related AE (Overall, N = 23) | Chills, related severe AE (Overall, N = 23) | Fatigue, related severe AE (Overall, N = 23) | Headache, treatment-related AE (Overall, N = 23) | Hypercholesterolemia, treatment-related AE (Overall, N = 23) | Injection site reaction, treatment-related AE (Overall, N = 23)
3 (13.0%): TEAE: Investigations [1]
six: Treatment-related hypertension, occurrences (all cohorts)
